One assay concerns B. subtilis KCTC1021. As to the kind of experiment: Ultrasensitive radial diffusion assay (URDA), MEC. It counts as cell-based, Bacillus subtilis. Particulars: B. subtilis KCTC1021, Gram +, 10 mM PB pH 6.6, 37 °C, x-intercept of units vs log10 concentration, triplicate averaged. The method, then:
(§1) The antimicrobial activity of the purified peptide was assessed as described previously. We tested the synthetic peptides against several Gram-positive bacteria including two Bacillus subtilis strains, Micrococcus luteus, Staphylococcus aureus, and Streptococcus iniae, Gram-negative bacteria including three Escherichia coli strains, Aeromonas hydrophila, Edwardsiella tarda, Pseudomonas aeruginosa, Vibrio parahemolyticus, and Salmonella enteric, as well as the yeast Candida albicans. All strains were grown overnight for 18 h in trypticase soy broth (TSB) or sabouraud dextrose broth (SDB) at the appropriate temperature (25 °C for A. hydrophila, E. tarda, P. aeruginosa, S. iniae, and V. parahemolyticus and 37 °C for the other strains). After an overnight incubation, the bacterial and C. albicans suspensions were diluted to a McFarland turbidity standard of 0.5 (Vitek Colorimeter #52-1210; Hach, Loveland, CO, USA) corresponding to ~10^8 CFU/mL for bacteria and ~10^6 CFU/mL for C. albicans. One-half milliliter of diluted bacterial or C. albicans suspension was added to 9.5 mL of underlay gel containing 5 × 10^6 CFU/mL or 5 × 10^4 CFU/mL in 10 mM phosphate buffer (PB; pH 6.6) with 0.03% TSB or 0.03% SDB and 1% Type I (low EEO) agarose. The purified peptide was serially diluted twofold in 5 μL of acidified water (0.01% HAc), and each dilution was added to 2.5-mm-diameter wells made in the 1-mm-thick underlay gels. After incubation for 3 h at either 25 °C (for A. hydrophila, E. tarda, P. aeruginosa, S. iniae, and V. parahemolyticus) or 37 °C (the other strains), the bacterial or yeast suspension was overlaid with 10 mL of double-strength overlay gel containing 6% TSB or 6% SDB with 10 mM PB (pH 6.6) in 1% agarose. Plates were incubated for an additional 18–24 h, after which the clearing zone diameters were measured. After subtracting the diameter of the well, the clearing zone diameter was expressed in units (0.1 mm = 1 U).
(§2) All tested bacteria and yeast were prepared as described above. The minimal effective concentration (MEC, μg/mL) of the synthetic peptides was calculated as the x-intercept of a plot of units against the log10 of the peptide concentration. […] The antimicrobial assay was performed in triplicate and the results were averaged.

In the next assay the test system is C. albicans KCTC7965. The assay can be described thus: URDA, MEC. It counts as cell-based, Candida albicans. Particulars: C. albicans KCTC7965, yeast, pH 6.6, 37 °C, triplicate averaged. As for the experimental part:
as §1, §2

For another assay, the system named is A. hydrophila KCTC2358. The assay can be described thus: URDA, MEC. It counts as cell-based, Aeromonas hydrophila. Particulars: fish pathogen A. hydrophila KCTC2358, Gram −, pH 6.6, 25 °C, triplicate averaged. The method, then: as §1, §2
Assay [1] deals with V. parahemolyticus KCCM41664. As to the kind of experiment: URDA, MEC. It counts as cell-based, Vibrio parahemolyticus. Particulars: fish pathogen V. parahemolyticus KCCM41664, Gram −, pH 6.6, 25 °C, triplicate averaged. As for the experimental part: as §1, §2
For assay [2], the system named is E. coli ML35p outer membrane. The assay can be described thus: Outer membrane permeabilization, NPN uptake assay. It counts as cell-based, Escherichia coli. The conditions noted are these: peptide 40 μg/mL, 3 min after addition, 25 °C, 5 mM HEPES pH 7.2; order 2A > 6A > 1N > 5A; triplicate. As for the experimental part: (§3) The outer membrane-permeabilizing activity of peptides was determined using the 1-N-phenylnapthylamine (NPN) uptake assay as described by Koo et al.. Briefly, an overnight culture of E. coli ML35p was transferred to fresh TSB medium and grown to A600 of 0.5–0.6. Cells were harvested, washed, and resuspended in the same volume of buffer (5 mM HEPES, pH 7.2, 5 mM KCN, and 5 mM glucose). Next, 20 μL of 0.5 mM NPN was added and mixed with 1 mL of cells, and peptide samples (40 μg/mL) were added after 3 min. The increase in fluorescence due to partitioning of NPN into the outer membrane was measured 3 min after the addition of peptides using a spectrofluorometer (LS 50B Fluorescence Spectrometer; PerkinElmer, Waltham, MA, USA) at an excitation wavelength of 350 nm and an emission wavelength of 420 nm at 25 °C. The extent of cytoplasmic membrane permeabilization was determined by measuring β-galactosidase activity in E. coli ML35p using O-nitrophenyl-β-D-galactopyranoside (ONPG), a nonmembrane-permeative chromogenic substrate. Mid-logarithmic phase E. coli cells were washed in 10 mM sodium phosphate buffer (NaPB), pH 7.4, and resuspended in the same buffer with 1.5 mM ONPG. The hydrolysis of ONPG to O-nitrophenol over time was monitored spectrophotometrically at 420 nm following the addition of peptide samples. Membrane permeabilization assays were performed in triplicate and the results were averaged.

The test system of the next assay is M. luteus ATCC9341. As to the kind of experiment: URDA, MEC. It counts as cell-based, Micrococcus luteus. The conditions noted are these: M. luteus ATCC9341, Gram +, pH 6.6, 37 °C, triplicate averaged. The method, then:
as §1, §2

In another assay the test system is P. aeruginosa KCTC2004. As to the kind of experiment: URDA, MEC. Particulars: P. aeruginosa KCTC2004, Gram −, pH 6.6, 25 °C, triplicate averaged. It counts as cell-based, Pseudomonas aeruginosa. As for the experimental part:
as §1, §2

In another assay the test system is S. enterica KCTC2514. As to the kind of experiment: URDA, MEC. It counts as cell-based, Salmonella enteric. Particulars: S. enterica KCTC2514, Gram −, pH 6.6, 37 °C, triplicate averaged. The method, then:
as §1, §2

In a further assay the test system is S. aureus RM4220. As to the kind of experiment: URDA, MEC. It counts as cell-based, Staphylococcus aureus. Particulars: S. aureus RM4220, Gram +, pH 6.6, 37 °C, triplicate averaged. The method, then:
as §1, §2

For a further assay, the system named is E. coli KCTC1116. The assay can be described thus: URDA, MEC. It counts as cell-based, Escherichia coli. Particulars: E. coli KCTC1116, Gram −, pH 6.6, 37 °C, triplicate averaged. The method, then: as §1, §2
Another assay concerns E. coli ML35p. As to the kind of experiment: URDA, MEC. It counts as cell-based, Escherichia coli. The conditions noted are these: Gram −, pH 6.6, 37 °C, triplicate averaged. The method, then:
as §1, §2

A further assay concerns E. tarda H-4. As to the kind of experiment: URDA, MEC. It counts as cell-based, Edwardsiella tarda. The conditions noted are these: fish pathogen E. tarda H-4, Gram −, pH 6.6, 25 °C, triplicate averaged. The method, then:
as §1, §2

The subject of assay [3] is E. coli ML35p inner cytoplasmic membrane. The assay can be described thus: Cytoplasmic membrane permeabilization, β-galactosidase/ONPG assay. It counts as cell-based, Escherichia coli. The conditions noted are these: peptide 40 μg/mL, 10 mM NaPB pH 7.4, 1.5 mM ONPG; triplicate. The method, then: as §3
The next assay has as its system S. iniae FP5229. The assay can be described thus: URDA, MEC. It counts as cell-based, Streptococcus iniae. The conditions noted are these: fish pathogen S. iniae FP5229, Gram +, pH 6.6, 25 °C, triplicate averaged. The method, then: as §1, §2
For another assay, the system named is B. subtilis RM125. The assay can be described thus: URDA, MEC. The conditions noted are these: B. subtilis RM125, Gram +, pH 6.6, 37 °C, triplicate averaged. It counts as cell-based, Bacillus subtilis. As for the experimental part:
as §1, §2

Where no end group is shown, it is not given here. A value given as a limit tells only on which side of the number the result lay.

As for KLVKTQLKVLK [ofLBP 4N], the “Minimal Effectives Concentration” value in the assay on B. subtilis KCTC1021 is 62.5 µg/mL; with C. albicans KCTC7965 it was 125.0 µg/mL; with A. hydrophila KCTC2358, more than 250.0 µg/mL; in [1], 1.3 µg/mL; in the assay on M. luteus ATCC9341 it was 250.0 µg/mL; in the assay on P. aeruginosa KCTC2004, more than 250.0 µg/mL. Also, the “Minimal Effectives Concentration” value was 250.0 µg/mL in the assay on S. enterica KCTC2514; 62.5 µg/mL in the assay with S. aureus RM4220; 1.5 µg/mL with E. coli KCTC1116; 250.0 µg/mL in the assay on E. coli ML35p; more than 250.0 µg/mL in the assay on E. tarda H-4; more than 250.0 µg/mL in the assay on S. iniae FP5229. In addition, the “Minimal Effectives Concentration” value in the assay with B. subtilis RM125 was 250.0 µg/mL. In addition, in assay [2], the “Outer membrane permeabilization ability (NPN fluorescence)” value (“Outer membrane permeabilization ability” below) is “no inner or outer membrane permeability”. In addition, the “Inner cytoplasmic membrane permeabilization ability (ONPG hydrolysis, 420 nm)” value in assay [3] is “no permeabilization ability”.
For KLVKTWLKVLK [ofLBP 5A], the “Minimal Effectives Concentration” value in the assay on B. subtilis KCTC1021 stood at 0.7 µg/mL; in the assay with C. albicans KCTC7965, 4.0 µg/mL; in the assay with A. hydrophila KCTC2358, 5.0 µg/mL; in assay [1], 1.2 µg/mL; in the assay on M. luteus ATCC9341, 8.0 µg/mL; in the assay with P. aeruginosa KCTC2004, 8.0 µg/mL. Also, the “Minimal Effectives Concentration” value came out at 3.5 µg/mL in the assay on S. enterica KCTC2514; 3.7 µg/mL with S. aureus RM4220; 1.6 µg/mL with E. coli KCTC1116; 1.6 µg/mL in the assay on E. coli ML35p; 250.0 µg/mL in the assay on E. tarda H-4; 2.7 µg/mL with S. iniae FP5229. Moreover, the “Minimal Effectives Concentration” value with B. subtilis RM125 was determined as 4.2 µg/mL. Besides, the “Outer membrane permeabilization ability” value in [2] is reported as “significant outer membrane permeabilization ability”. Besides, the “Inner cytoplasmic membrane permeabilization ability (ONPG hydrolysis, 420 nm)” value in assay [3] is given as “no permeabilization ability”.
On to MKLVKTWLKVLK-NH2 [ofLBP 6A], for which the “Minimal Effectives Concentration” value was determined as 1.4 µg/mL in the assay with B. subtilis KCTC1021; 2.7 µg/mL with C. albicans KCTC7965; 2.8 µg/mL with A. hydrophila KCTC2358; 0.9 µg/mL in [1]; 2.2 µg/mL in the assay on M. luteus ATCC9341; 4.6 µg/mL in the assay with P. aeruginosa KCTC2004. Further, the “Minimal Effectives Concentration” value with S. enterica KCTC2514 was found to be 2.6 µg/mL; with S. aureus RM4220 it was 2.7 µg/mL; in the assay with E. coli KCTC1116 it was 3.8 µg/mL; in the assay on E. coli ML35p, 1.8 µg/mL; with E. tarda H-4, 62.5 µg/mL; with S. iniae FP5229, 1.2 µg/mL. For the same substance, the “Minimal Effectives Concentration” value with B. subtilis RM125 was found to be 1.8 µg/mL. The “Outer membrane permeabilization ability” value in [2] is recorded as “significant outer membrane permeabilization ability”. The “Inner cytoplasmic membrane permeabilization ability (ONPG hydrolysis, 420 nm)” value in assay [3] is “strong permeabilization ability”.
Turning to Piscidin 1 [reference compound], the “Minimal Effectives Concentration” value in the assay on B. subtilis KCTC1021 was 2.3 µg/mL; in the assay with C. albicans KCTC7965, more than 62.5 µg/mL; in the assay on A. hydrophila KCTC2358 it was 10.0 µg/mL; in assay [1] it was 1.8 µg/mL; in the assay on M. luteus ATCC9341, 2.3 µg/mL; in the assay with P. aeruginosa KCTC2004 it was 8.0 µg/mL. The “Minimal Effectives Concentration” value in the assay with S. enterica KCTC2514 was determined as 7.0 µg/mL; in the assay on S. aureus RM4220, 2.2 µg/mL; in the assay with E. coli KCTC1116 it was 7.0 µg/mL; in the assay with E. coli ML35p, 2.3 µg/mL; in the assay on E. tarda H-4, 125.0 µg/mL; in the assay with S. iniae FP5229 it was 6.5 µg/mL. In addition, the “Minimal Effectives Concentration” value in the assay with B. subtilis RM125 is 4.5 µg/mL. The “Outer membrane permeabilization ability” value in [2] is listed as “strong permeabilization ability”. Moreover, the “Inner cytoplasmic membrane permeabilization ability (ONPG hydrolysis, 420 nm)” value in assay [3] is recorded as “strong cytoplasmic membrane permeabilizing activity”.

The values above are taken from PMC4210897, “Antimicrobial Activity of Peptides Derived from Olive Flounder Lipopolysaccharide Binding Protein/Bactericidal Permeability-Increasing Protein (LBP/BPI)” (Marine Drugs, 2014).
